Measurements as given in BindingDB's records for doi:10.1097/00001813-200302000-00012 (Korea Research Institute of Chemical Technology, 2003).

Columns and labels:
[1] = TP_TRANSPORTER: drug resistance (paclitaxel) in MES-SA/DX5 cells
[2] = TP_TRANSPORTER: drug resistance (paclitaxel) in HCT15/CL02 cells

| IC50 [1] [µM] | IC50 [2] [µM] | SMILES |
| --- | --- | --- |
| 6.63 | 3.04 | COc1ccc(CCN(C)CCC[C@@]2(C#N)CCc3c2ccc(OC)c3OC)cc1OC |
| 7.65 | 3.11 | COc1ccc(CCN(C)CCC[C@]2(C#N)CCc3c2ccc(OC)c3OC)cc1OC |
